Test results as given in patent US20240150370A1, “BICYCLIC PYRIDINE DERIVATIVE” (Sumitomo Pharma Co., Ltd., priority 0001, published 2024).
Where a name gives a salt, the structure may show the parent alone.

What was measured:
human TAAR1 receptor = human TAAR1 receptor (Homo sapiens (Human), UniProt Q96RJ0); assay: Evaluation of agonist activity on human TAAR1 receptor (cAMP assay); format: cell-based; conditions: cAMP in human TAAR1-expressing CHO cells, relative to 100 μM tyramine; for activation at 0.1 µM / activation at 1 µM / activation at 10 µM: CHO, 0.5 h, read-out: TAAR1 agonist activity at each concentration (%)
Experimental: TAAR1 is a G protein-coupled receptor that binds to G proteins (Gas), and activation of the TAAR1 receptor by agonists induces an increase in intracellular cAMP levels. Therefore, the agonist activity of the sample on the human TAAR1 receptor was evaluated using the cAMP assay method.
cAMP Hunter™ CHO-K1 TAAR1 Gs Cell Line, a cell expressing human TAAR1 receptor, was purchased. Human TAAR1-expressing CHO cells were seeded in a 96-well plate, and after culturing for 24 hours, a sample dissolved in DMSO was added and incubated at 37° C. for 30 minutes. A sample for cAMP measurement was prepared according to the cAMPHiRange kit protocol. The amount of cAMP produced by the sample was measured by time-resolved fluorescence using EnVision (excitation wavelength: 330 nm, fluorescence wavelength […]/665 nm).
Sample %=100×{(Csamp)−(Cblank)}/{(Ctyramine)−(Cblank)} • Csamp: count of sample, Ctyramine: count of 100 μM tyramine, Cblank: count of blank

hERG channel = hERG channel (Homo sapiens (Human), UniProt Q12809); assay: Evaluation of hERG channel inhibitory activity (whole-cell patch clamp, hERG-CHO cells); format: cell-based; conditions: autopatch clamp, read-out: hERG inhibition IC50
Sequence of hERG channel (Q12809 whole entry): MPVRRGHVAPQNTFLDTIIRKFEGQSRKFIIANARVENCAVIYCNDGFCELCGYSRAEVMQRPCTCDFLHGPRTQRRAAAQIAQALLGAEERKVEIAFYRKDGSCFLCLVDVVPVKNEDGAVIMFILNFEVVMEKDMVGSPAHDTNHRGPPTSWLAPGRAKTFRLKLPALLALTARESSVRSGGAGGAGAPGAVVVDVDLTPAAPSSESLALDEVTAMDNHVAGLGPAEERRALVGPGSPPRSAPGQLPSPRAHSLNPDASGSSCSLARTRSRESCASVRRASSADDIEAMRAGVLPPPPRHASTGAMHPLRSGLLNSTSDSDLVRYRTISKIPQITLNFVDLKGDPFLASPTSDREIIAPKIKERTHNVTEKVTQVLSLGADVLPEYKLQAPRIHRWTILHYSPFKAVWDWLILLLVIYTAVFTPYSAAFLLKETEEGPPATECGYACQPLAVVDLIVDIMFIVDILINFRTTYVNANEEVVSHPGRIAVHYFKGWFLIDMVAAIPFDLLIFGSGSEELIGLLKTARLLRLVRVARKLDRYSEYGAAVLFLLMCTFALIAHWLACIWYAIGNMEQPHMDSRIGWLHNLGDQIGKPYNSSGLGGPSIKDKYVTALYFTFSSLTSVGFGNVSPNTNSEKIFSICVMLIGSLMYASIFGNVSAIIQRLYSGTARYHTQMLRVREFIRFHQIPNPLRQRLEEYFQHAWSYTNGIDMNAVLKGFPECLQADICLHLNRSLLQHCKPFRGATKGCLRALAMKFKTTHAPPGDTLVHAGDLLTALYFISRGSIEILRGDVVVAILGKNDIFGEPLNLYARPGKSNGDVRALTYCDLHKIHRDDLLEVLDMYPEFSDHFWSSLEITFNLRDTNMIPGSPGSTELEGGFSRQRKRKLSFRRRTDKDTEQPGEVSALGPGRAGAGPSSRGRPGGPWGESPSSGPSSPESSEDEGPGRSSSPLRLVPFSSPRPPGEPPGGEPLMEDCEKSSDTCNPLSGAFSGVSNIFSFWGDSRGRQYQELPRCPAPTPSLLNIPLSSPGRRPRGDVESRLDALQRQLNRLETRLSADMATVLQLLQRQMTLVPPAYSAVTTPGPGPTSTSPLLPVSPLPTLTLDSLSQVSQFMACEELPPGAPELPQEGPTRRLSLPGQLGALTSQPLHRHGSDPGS

Sequence of human TAAR1 receptor (Q96RJ0 whole entry, the tested form may be a part): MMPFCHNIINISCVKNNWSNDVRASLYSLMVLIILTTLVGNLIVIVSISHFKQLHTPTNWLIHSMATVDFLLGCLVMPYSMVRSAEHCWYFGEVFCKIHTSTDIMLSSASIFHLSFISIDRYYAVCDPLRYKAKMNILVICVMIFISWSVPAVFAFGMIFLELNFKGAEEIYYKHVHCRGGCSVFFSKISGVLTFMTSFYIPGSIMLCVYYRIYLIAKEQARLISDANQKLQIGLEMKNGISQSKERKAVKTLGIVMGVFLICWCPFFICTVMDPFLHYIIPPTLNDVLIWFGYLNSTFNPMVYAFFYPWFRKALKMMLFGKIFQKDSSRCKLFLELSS

Row | activation at 0.1 µM (human TAAR1 receptor; 100 nM) | activation at 1 µM (human TAAR1 receptor; 1000 nM) | activation at 10 µM (human TAAR1 receptor; 10000 nM) | TAAR1 agonist activity at each concentration (%) (human TAAR1 receptor; 100 nM) | TAAR1 agonist activity at each concentration (%) (human TAAR1 receptor; 1000 nM) | TAAR1 agonist activity at each concentration (%) (human TAAR1 receptor; 10000 nM) | SMILES | IC50 (hERG channel)
1 | 36% | 74% | 82% |  |  |  | NCC1c2ncccc2OC12CC2 (stereo not drawn) [Example 58] | > 100 µM
2 | 12% | 38% | 65% |  |  |  | NC[C@H]1CSc2cccnc21 (single isomer, unassigned) [Example 41, dihydrochloride] | > 100 µM
3 | 31% | 70% | 80% |  |  |  | CNC[C@H]1c2ncccc2O[C@@H]1C [Example 46, N-methyl-1-[(2R,3S)-2-methyl-2,3-dihydrofuro[3,2-b]pyridin-3-yl]methanamine dihydrochloride] | > 100 µM
4 | 13% | 52% | 84% |  |  |  | CNC[C@@H]1C[C@@H](C)Oc2ccc(C)nc21 [Example 47] | > 100 µM
5 | 25% | 70% | 90% |  |  |  | NC[C@@H]1CSc2cccnc21 (single isomer, unassigned) [Example 42, dihydrochloride] | > 100 µM
6 | 38% | 74% | 86% |  |  |  | CNC[C@H]1c2nc(C)ccc2O[C@@H]1C [Example 48] | > 100 µM
7 | 10% | 47% | 74% |  |  |  | C[C@@H]1C[C@@H](CN)c2ncccc2S1 (racemic) [Example 14] | > 100 µM
8 | 15% | 51% | 79% |  |  |  | Cc1cc(C)c2c(n1)[C@H](CN)[C@@H](C)O2 [Example 84] | > 100 µM
9 | 36% | 77% | 90% |  |  |  | CNCC1c2nc(C)ccc2OC1(C)C (stereo not drawn) [Example 79] | > 100 µM
10 | 0% | 1% | 9% |  |  |  | C[C@H]1COc2cccnc2[C@H]1CN (stereo in doubt) [Example 3, rel-1-[(3R,4R)-3-methyl-3,4-dihydro-2H-pyrano[3,2-b]pyridin-4-yl]methanamine dihydrochloride] | 
11 | 0% | 0% | 7% |  |  |  | CC[C@H]1Oc2cccnc2[C@@H]1CN (stereo in doubt) [Example 43, rel-1-[(2R,3S)-2-ethyl-2,3-dihydrofuro[3,2-b]pyridin-3-yl]methanamine dihydrochloride] | 
12 | 1% | 18% | 59% |  |  |  | NC[C@@H]1c2nc(F)ccc2OC12CC2 (single isomer, unassigned) [Example 102, rel-1-[(3′R)-5′-fluoro-3′H-spiro[cyclopropane-1,2′-furo[3,2-b]pyridine]-3′-yl]methanamine dihydrobromide] | 
13 | 0% | 11% | 47% |  |  |  | CC1CCC(CN)c2ncccc21 (stereo not drawn) [Example 77] | 
14 | 33% | 88% | 107% |  |  |  | C[C@@H]1Oc2cccnc2[C@@H]1CN [Example 20] | 
15 | 2% | 18% | 63% |  |  |  | C[C@H]1Oc2ccc(C(F)(F)F)nc2[C@@H]1CN [Example 30] | 
16 | 1% | 4% | 28% |  |  |  | [2H][C@@]1(C)Oc2cccnc2[C@H]1CN (stereo in doubt) [Example 94, rel-1-[(2S,3R)-2-methyl(2-^2H)-2,3-dihydrofuro[3,2-b]pyridin-3-yl]methanamine dihydrochloride] | 
17 | 1% | 8% | 40% |  |  |  | CC[C@H]1COc2cccnc2[C@@H]1CN (racemic) [Example 86] | 
18 | 4% | 30% | 62% |  |  |  | NCC1c2ncccc2OCC12CC2 (stereo not drawn) [Example 69] | 

Row | activation at 0.1 µM (human TAAR1 receptor; 100 nM) | activation at 1 µM (human TAAR1 receptor; 1000 nM) | activation at 10 µM (human TAAR1 receptor; 10000 nM) | TAAR1 agonist activity at each concentration (%) (human TAAR1 receptor; 100 nM) | TAAR1 agonist activity at each concentration (%) (human TAAR1 receptor; 1000 nM) | TAAR1 agonist activity at each concentration (%) (human TAAR1 receptor; 10000 nM) | SMILES | IC50 (hERG channel)
19 | 19% | 65% | 84% |  |  |  | C[C@H]1Oc2c(F)ccnc2[C@@H]1CN [Example 59] | 
20 | 4% | 25% | 63% |  |  |  | CC[C@@H]1COc2cccnc2[C@@H]1CN (racemic) [Example 87] | 
21 | 2% | 22% | 66% |  |  |  | CC[C@@H]1C[C@@H](CN)c2ncccc2O1 (racemic) [Example 61] | 
22 | 0% | 9% | 40% |  |  |  | COCCNC[C@H]1c2ncccc2O[C@@H]1C [Example 73] | 
23 | 0% | 6% | 33% |  |  |  | CCOc1ccnc2c1CCC2CN (stereo not drawn) [Example 76] | 
24 | 0% | 6% | 29% |  |  |  | C=CCNC[C@H]1c2ncccc2O[C@@H]1C [Example 71] | 
25 | 1% | 8% | 48% |  |  |  | C[C@@H]1C[C@H](CN)c2ncc(F)cc2O1 [Example 52] | 
26 | 0% | 5% | 31% |  |  |  | Cc1ccc2c(n1)[C@@H](CN)C(C)(C)O2 (single isomer, unassigned) [Example 104, dihydrochloride] | 
27 | 1% | 3% | 12% |  |  |  | C[C@H]1Oc2cc(C(F)(F)F)cnc2[C@@H]1CN [Example 31] | 
28 | 17% | 56% | 75% |  |  |  | CNC[C@@H]1C[C@@H](C)Oc2cccnc21 (racemic) [Example 7] | 
29 | 15% | 63% | 94% |  |  |  | C[C@H]1Oc2cccnc2[C@@H]1C(C)(C)N [Example 54] | 
30 | 64% | 77% | 79% |  |  |  | Cc1ccc2c(n1)[C@H](CN)C(C)(C)O2 (single isomer, unassigned) [Example 105, dihydrochloride] | 
31 | 0% | 25% | 73% |  |  |  | NC[C@H]1c2ncccc2O[C@@H]1CO (racemic) [Example 26] | 
32 |  |  |  | 6% | 37% | 70% | C[C@H]1Oc2cc(Cl)cnc2[C@@H]1CN (racemic) [Example 85] | 
33 | 0% | 17% | 50% |  |  |  | Cc1ccc2c(n1)[C@@H](CN)C1(CC1)O2 (single isomer, unassigned) [Example 100, rel-1-[(3′R)-5′-methyl-3′H-spiro[cyclopropane-1,2′-furo[3,2-b]pyridine]-3′-yl]methanamine dihydrochloride] | 
34 | 1% | 10% | 39% |  |  |  | NCC1CCOc2ccc(C(F)(F)F)nc21 (stereo not drawn) [Example 67] | 
35 | 0% | 5% | 27% |  |  |  | CNCC1CC(C)c2cccnc21 (stereo not drawn) [Example 78] | 
36 | 0% | 14% | 49% |  |  |  | NCC1CCc2c(OC3CCC3)ccnc21 (racemic) [Example 91, rac-1-[4-(cyclobutyloxy)-6,7-dihydro-5H-cyclopenta[b]pyridin-7-yl]methanamine dihydrochloride] | 
